Assays:
[1] = molecular target: T1, human B1R receptor (CHO K1 cells stably transfected with the human B1R gene) (Homo sapiens, UniProt P46663); test: Functional study on the bradykinin receptor 1 (B1R), Ca2+ fluorescence (Fluo-4) FLIPR/Novostar assay, hB1R cells; assay type: cell-based; settings: CHO-K1, read-out: % inhibition (human B1R) at 10 μM
T1 construct: expressed in transfected cells; host or cells: CHO K1 cells (Chinese hamster ovary), stably transfected
T1 sequence (P46663 1-353): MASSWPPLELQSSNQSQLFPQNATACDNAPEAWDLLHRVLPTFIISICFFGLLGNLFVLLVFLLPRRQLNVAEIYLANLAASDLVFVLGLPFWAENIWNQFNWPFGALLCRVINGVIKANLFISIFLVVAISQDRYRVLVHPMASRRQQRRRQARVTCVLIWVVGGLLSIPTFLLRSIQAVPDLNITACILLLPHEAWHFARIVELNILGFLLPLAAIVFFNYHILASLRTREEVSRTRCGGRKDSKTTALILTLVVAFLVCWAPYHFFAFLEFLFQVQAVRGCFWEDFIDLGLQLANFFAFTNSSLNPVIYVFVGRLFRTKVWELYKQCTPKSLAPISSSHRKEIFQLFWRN
Procedure, shortened: (§1)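 Ca2+ influx (Fluo-4, peak fluorescence, λex 488/λem 540 nm) was measured in CHO K1 lines expressing rat or human B1R. After a 10 μM test-compound pre-addition scoring % activation, cells received EC80 agonist: Des-Arg9-bradykinin for rat, Lys-Des-Arg9-bradykinin for human. Antagonism was expressed as % of maximum inhibition, with IC50 from varied concentrations.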

[2] = molecular target: T2, B1R receptor of the rat (CHO K1 cells stably transfected with the B1R gene of the rat) (Rattus norvegicus, UniProt P97583); test: Functional study on the bradykinin receptor 1 (B1R), Ca2+ fluorescence (Fluo-4) FLIPR/Novostar assay, rB1R cells; assay type: cell-based; settings: CHO-K1, 10 μM, read-out: % inhibition (rat B1R) at 10 μM
T2 construct: expressed in transfected cells; host or cells: CHO K1 cells (Chinese hamster ovary), stably transfected
T2 sequence (P97583 1-337): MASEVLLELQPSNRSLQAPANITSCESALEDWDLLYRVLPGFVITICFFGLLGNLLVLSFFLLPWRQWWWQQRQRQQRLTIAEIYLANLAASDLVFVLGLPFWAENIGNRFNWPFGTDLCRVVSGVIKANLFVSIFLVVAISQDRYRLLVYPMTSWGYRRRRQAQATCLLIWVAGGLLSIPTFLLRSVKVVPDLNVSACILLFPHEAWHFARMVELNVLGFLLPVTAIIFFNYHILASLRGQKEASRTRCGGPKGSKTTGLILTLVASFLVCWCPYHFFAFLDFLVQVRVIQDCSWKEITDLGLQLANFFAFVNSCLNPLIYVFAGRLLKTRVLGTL
Procedure, shortened: as §1

Row | SMILES | inhibition at 10 µM [1] [%] | inhibition at 10 µM [2] [%]
1 | CN(CC1CCN(c2ccncc2)CC1)C(=O)c1ccc2c(c1)[C@H](NC(=O)c1ccccc1Cl)CC2 [Example H-64, (3R)-3-[(2-Chloro-benzoyl)amino]-N-methyl-N-[(1-pyridin-4-yl-piperidin-4-yl)-methyl]-2,3-dihydro-1H-indene-5-carboxylic acid amide] | 96 | 97
2 | CC(C)CN(C(=O)c1ccccc1Cl)[C@@H]1CCc2ccc(C(=O)N(C)C3CCN(c4ccncc4)CC3)cc21 [Example H-65, (3R)-3-[(2-Chloro-benzoyl)-(2-methyl-propyl)-amino]-N-methyl-N-(1-pyridin-4-yl-piperidin-4-yl)-2,3-dihydro-1H-indene-5-carboxylic acid amide] | 100 | 107
3 | CN(CCC1CCN(c2ccncc2)CC1)C(=O)c1ccc2c(c1)[C@H](NC(=O)c1ccccc1Cl)CC2 [Example H-66, (3R)-3-[(2-Chloro-benzoyl)amino]-N-methyl-N-[2-(1-pyridin-4-yl-piperidin-4-yl)-ethyl]-2,3-dihydro-1H-indene-5-carboxylic acid amide] | 93 | 99
4 | CN(C(=O)c1ccc2c(c1)[C@H](NC(=O)c1ccccc1C(C)(C)C)CC2)C1CCN(c2ccncc2)CC1 [Example H-67, (3R)-3-[(2-tert-Butyl-benzoyl)amino]-N-methyl-N-(1-pyridin-4-yl-piperidin-4-yl)-2,3-dihydro-1H-indene-5-carboxylic acid amide] | 100 | 102
5 | CC(C)CS(=O)(=O)N[C@@H]1CCc2ccc(C(=O)N(C)C3CCN(c4ccncc4)CC3)cc21 [Example H-68, (3R)-N-Methyl-3-[(2-methyl-propylsulfonyl)amino]-N-(1-pyridin-4-yl-piperidin-4-yl)-2,3-dihydro-1H-indene-5-carboxylic acid amide] | 100 | 104
6 | CN(C(=O)c1ccc2c(c1)[C@H](NC(=O)[C@H]1CCCc3ccccc31)CC2)C1CCN(c2ccncc2)CC1 [Example H-69, (1S)-N-[(1R)-6-[Methyl-(1-pyridin-4-yl-piperidin-4-yl)-carbamoyl]-2,3-dihydro-1H-inden-1-yl]-1,2,3,4-tetrahydro-naphthalene-1-carboxylic acid amide] | 100 | 99
7 | CN(C(=O)c1ccc2c(c1)[C@H](NC(=O)[C@@H]1CCCc3ccccc31)CC2)C1CCN(c2ccncc2)CC1 [Example H-70, N-[(1R)-6-[Methyl-(1-pyridin-4-yl-piperidin-4-yl)-carbamoyl]-2,3-dihydro-1H-inden-1-yl]-1,2,3,4-tetrahydro-naphthalene-1-carboxylic acid amide] | 100 | 96

More lines, now with the values ahead:

Row | inhibition at 10 µM [1] [%] | inhibition at 10 µM [2] [%] | SMILES
8 | 100 | 99 | CN(C(=O)c1ccc2c(c1)[C@H](NC(=O)c1ccccc1)CC2)C1CCN(c2ccncc2)CC1 [Example H-71, (3R)-3-Benzoylamino-N-methyl-N-(1-pyridin-4-yl-piperidin-4-yl)-2,3-dihydro-1H-indene-5-carboxylic acid amide]
9 | 99 | 104 | CN(C(=O)c1ccc2c(c1)[C@H](NS(=O)(=O)c1ccc(F)cc1)CC2)C1CCN(c2ccncc2)CC1 [Example H-72, (3R)-3-[[(4-Fluorophenyl)sulfonyl]amino]-N-methyl-N-(1-pyridin-4-yl-piperidin-4-yl)-2,3-dihydro-1H-indene-5-carboxylic acid amide]
10 | 100 | 104 | CN(C(=O)c1ccc2c(c1)[C@H](NC(=O)c1cccc3ccccc13)CC2)C1CCN(c2ccncc2)CC1 [Example H-73, N-[(1R)-6-[Methyl-(1-pyridin-4-yl-piperidin-4-yl)-carbamoyl]-2,3-dihydro-1H-Inden-1-yl]-naphthalene-1-carboxylic acid amide]
